Test systems include HL-60(TB) leukemia; COLO 205 colon; A549 NSCLC; MALME-3M melanoma; EKVX NSCLC; LOX IMVI melanoma; SK-OV-3 ovarian; CAKI-1 renal; HT29 colon; SR leukemia; KM12 colon; MDA-N; PC-3 prostate; ACHN renal; SNB-19 CNS; SF-539 CNS; OVCAR-5 ovarian; BT-549 breast.
What all share (test): NCI anticancer screen, dose series, 48 h

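Test compounds were applied to cells in 96-well plates for 48 hours at 5 doses. TGI: total growth inhibition.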

With `CC1=C2CN(C(=O)OCC(C)C)CCC2C2=C(C(=O)c3ccccc3C2=O)C1C` (stereo not given), the TGI in the test with HL-60(TB) leukemia, with COLO 205 colon, in the test with A549 NSCLC, in the test on MALME-3M melanoma, in the test on EKVX NSCLC and in the test with LOX IMVI melanoma was above 10 µM in each case. Besides, the TGI in the test on SK-OV-3 ovarian, in the test on CAKI-1 renal, in the test with HT29 colon, in the test on SR leukemia, in the test with KM12 colon and in the test on MDA-N was above 10 µM each time. The compound also displayed a TGI in the test on PC-3 prostate above 10 µM.
On to `Cc1cn(C2CC(NC(=NCC3OC(n4cnc5c(N)ncnc54)CC3O)NC#N)C(CO)O2)c(=O)[nH]c1=O` (stereo not given), for which the TGI in the test on HL-60(TB) leukemia, with COLO 205 colon, in the test on A549 NSCLC, in the test on MALME-3M melanoma, with EKVX NSCLC and in the test with ACHN renal was above 100 µM each time. Besides, the TGI in the test on LOX IMVI melanoma, in the test with SK-OV-3 ovarian, with CAKI-1 renal, in the test on HT29 colon, with SR leukemia and with KM12 colon was above 100 µM each time. Also, the TGI in the test on MDA-N, in the test on SNB-19 CNS, with PC-3 prostate, in the test on SF-539 CNS and in the test on OVCAR-5 ovarian was above 100 µM throughout.
For `OC(CC(O)(C(F)(F)F)C(F)(F)F)C(O)c1ccco1` (stereo not given), the TGI with HL-60(TB) leukemia, with COLO 205 colon, in the test with A549 NSCLC, in the test on MALME-3M melanoma, in the test with EKVX NSCLC and with ACHN renal was above 10 µM throughout. For the same compound, the TGI in the test with LOX IMVI melanoma, in the test on SK-OV-3 ovarian, in the test with CAKI-1 renal, with HT29 colon, in the test on SR leukemia and with KM12 colon was above 10 µM in each case. For the same compound, the TGI with MDA-N, with SNB-19 CNS, in the test with PC-3 prostate and in the test on SF-539 CNS was above 10 µM in each case.
For `COC(=O)[C@@H]1OC(C)(c2ccccc2)O[C@H]1C(=O)OC`, the TGI in the test on HL-60(TB) leukemia, in the test with COLO 205 colon, with A549 NSCLC, in the test with MALME-3M melanoma, with EKVX NSCLC and in the test on ACHN renal was above 100 µM each time. Also, the TGI with LOX IMVI melanoma, in the test on SK-OV-3 ovarian, with CAKI-1 renal, with HT29 colon, with SR leukemia and in the test with KM12 colon was above 100 µM throughout. Also, the TGI in the test on MDA-N, in the test with SNB-19 CNS, with PC-3 prostate, in the test on SF-539 CNS and in the test with OVCAR-5 ovarian was above 100 µM each time.
`CN(C)c1nc(=NCc2cccnc2)ss1`: the TGI in the test with HL-60(TB) leukemia, in the test with COLO 205 colon, with A549 NSCLC, in the test on MALME-3M melanoma, with EKVX NSCLC and in the test on LOX IMVI melanoma was above 10 µM throughout. Moreover, the TGI in the test on SK-OV-3 ovarian, with CAKI-1 renal, in the test on HT29 colon, in the test with SR leukemia, with KM12 colon and in the test on MDA-N was above 10 µM throughout. Moreover, the TGI in the test with PC-3 prostate was above 10 µM.
As to `O=C(CC(=O)N1N=C(N(c2ccccc2)c2ccccc2)CC1c1ccccc1)Nc1ccccc1` (stereo not given), the TGI in the test on HL-60(TB) leukemia, in the test with BT-549 breast, in the test with COLO 205 colon, in the test on A549 NSCLC, in the test with EKVX NSCLC and with ACHN renal was above 100 µM each time. The TGI in the test on SK-OV-3 ovarian, in the test with CAKI-1 renal, with HT29 colon, in the test with SR leukemia, in the test with KM12 colon and in the test with SNB-19 CNS was above 100 µM in each case. The TGI in the test on PC-3 prostate, in the test on SF-539 CNS and with OVCAR-5 ovarian was above 100 µM throughout.
In the case of `Cn1c(=O)n2n(c1=O)[C@@H](c1ccccc1)[C@H]2c1ccccc1`, the TGI in the test on HL-60(TB) leukemia, with BT-549 breast, with COLO 205 colon, in the test with A549 NSCLC, in the test with MALME-3M melanoma and in the test on EKVX NSCLC was above 100 µM each time. For the same compound, the TGI in the test with ACHN renal, in the test with LOX IMVI melanoma, in the test on SK-OV-3 ovarian, in the test on CAKI-1 renal, in the test with HT29 colon and in the test with SR leukemia was above 100 µM in each case. The TGI with KM12 colon, in the test with SNB-19 CNS, in the test on PC-3 prostate, in the test with SF-539 CNS and with OVCAR-5 ovarian was above 100 µM each time.
On to `CN(C)Cc1cc(/C=C/C(=O)c2ccc(Cl)c(Cl)c2)cc(CN(C)C)c1O`, for which the TGI was above 100 µM in the test on HL-60(TB) leukemia; 22.2 µM in the test on BT-549 breast; 32.5 µM in the test with COLO 205 colon; 36.8 µM with A549 NSCLC; 22.7 µM with MALME-3M melanoma; 30.1 µM in the test with EKVX NSCLC. Further, the TGI in the test on ACHN renal came to 25.4 µM; in the test on SK-OV-3 ovarian it was 36.9 µM; with CAKI-1 renal, 21.1 µM; in the test on HT29 colon it was 28.6 µM; in the test with KM12 colon, 26.3 µM; in the test with MDA-N, 29.8 µM. For the same compound, the TGI in the test with SNB-19 CNS was 32.5 µM; with PC-3 prostate it was 28.2 µM; with SF-539 CNS, 20.3 µM; with OVCAR-5 ovarian, 28.3 µM.
With `CCO/C=C(\C(=O)OC)S(=O)(=O)c1ccc(C)cc1`, the TGI in the test with HL-60(TB) leukemia, in the test on COLO 205 colon, in the test on A549 NSCLC, with MALME-3M melanoma, with EKVX NSCLC and with ACHN renal was above 100 µM throughout. The TGI in the test with LOX IMVI melanoma, with SK-OV-3 ovarian, in the test with HT29 colon, in the test on SR leukemia, in the test on KM12 colon and with MDA-N was above 100 µM in each case. Further, the TGI in the test with SNB-19 CNS, in the test on PC-3 prostate, in the test with SF-539 CNS and in the test with OVCAR-5 ovarian was above 100 µM throughout.

Values taken from PubChem BioAssay (NCI).
